Measurements reported in patent publication US9775890B2, “Factor Xa inhibitor used with liver-derived progenitor cells” (UNIVERSITÉ CATHOLIQUE DE LOUVAIN, priority 2012, dated 2017).
Structures can show the parent of a compound that is named as a salt. Where two headings read alike, the source gives them in different places.

Experiments:
[1] = tested on: cells with PCA; test: Analogous thromboelastometry experiments with different direct factor Xa inhibitors plus direct thrombin inhibitor; assay type: cell-based; conditions: present tense
Method: (§1) Measurements were performed on a ROTEM® delta analyser (Pentapharm, Munich, Germany). ROTEM® assesses the kinetics and quality of clot formation and clot lysis in real-time. The clotting time (CT) is defined as the period of time from the start of the analysis until the start of clot formation, normally until the 2 mm amplitude is reached. The clot formation time is defined as the period until the 20 mm amplitude is reached. The alpha angle is defined as the angle between the centre line and a tangent to the curve through the 2 mm amplitude point, which is the end of the CT. The maximum amplitude of the curve is defined as the maximum clot firmness. The maximum of lysis represents the maximum fibrinolysis detected during the measurement. We focused on CT.
(§2) Briefly, after a short rest period, 300 μl of whole blood was pipetted into a cup pre-warmed at 37° C. Suspended cells were subsequently added to whole blood (5×10exp5 cells if no specification). Twenty μl of trigger reagent containing tissue factor (TF) (Innovin, Siemens, Marburg, Germany. Final dilution 1:17000/0.35 pM) diluted in Owren buffer (Siemens, Marburg, Germany) was then added to the cell-blood mixture followed by the necessary addition of 20 μl of 0.2 M CaCl2. After calcium addition, measurements started automatically. The procoagulant activity (PCA) of cells was also determined without addition of Innovin.
For modulation of PCA assays, cells were suspended in albumin 5% with or without non-fractionated heparin (Heparin Leo®, Leo). […] Dose extrapolation was based on circulating blood volume according to weight (70 ml/kg).

[2] = tested on: hALPCs; test: Thromboelastometry (ROTEM) clotting time: modulation of procoagulant activity (PCA) of hALPCs in whole blood; assay type: cell-based, human; conditions: for Clotting time (CT) of whole blood with hALPCs in presence of anticoagulant drug: ROTEM, 300 μl citrated whole blood, 5×10exp5 hALPCs, added TF, heparin 10 U/mL in cell suspension, hirudin 5.7 μg/ml; for Control of hALPCs PCA by thrombin inhibitor, increased dose (2× or 5×): FIGS. 14 and 15, dose 2× or 5×
Method: as §1
as §2, with “Innovin. To ascertain the role of TF in this coagulation model, cells were pre-incubated at room temperature for 10 minutes with either 0.2 mg/mL mAb anti-human TF IgG1 (American Diagnostica) or 0.2 mg/mL mAb mouse IgG1 (clone11711.11; RnD Systems, Abingdon, United Kingdom) before extensive washing in albumin 5% and thromboelastometry assay.” for “Innovin.”
For modulation of PCA assays, cells were suspended in albumin 5% with or without non-fractionated heparin (Heparin Leo®, Leo). The following were then added to blood or plasma: rivaroxaban (Xarelto®, Bayer Schering) at a concentration of 1 μg/ml following published data (Samama et al. (2010), Thromb Haemost, 103(4):815-825), hirudin (Refludan®, Celgene Europe Limited) at a concentration of 5.7 μg/ml (clinical dose extrapolation 0.4 mg/kg), bivalirudin (Angiox®, The Medicines Company) at a concentration of 10.7 μg/ml (clinical dose extrapolation 0.75 mg/kg). Dose extrapolation was based on circulating blood volume according to weight (70 ml/kg).

[3] = tested on: hepatocytes; test: Thromboelastometry (ROTEM): modulation of PCA of hepatocytes in whole blood; assay type: cell-based, human
Method: as §1
as §2, with “Innovin. […]” for “Innovin.”

[4] = tested on: citrated whole blood; test: Thromboelastometry (ROTEM) of control blood in absence of cells with anticoagulant drug; set-up: species or system human; conditions: no cells
Method: as §1
as §2, with “Innovin. […]” for “Innovin.”

Compound	Modulation of PCA of cells by concomitant use of the direct factor Xa inhibitor with a direct thrombin inhibitor (hirudin or bivalirudin) [1]	also measured
CC(=N)N1CC[C@H](Oc2ccc([C@H](Cc3ccc4ccc(C(=N)N)cc4c3)C(=O)O)cc2)C1 [DX9065a]	able to modulate PCA	
C[C@@H](C(=O)N1CCOCC1)N1CC[C@H](NS(=O)(=O)/C=C/c2ccc(Cl)s2)C1=O [GW813893]	able to modulate PCA	
N=C(N)N1CCc2ccc(OCC3(C(=O)O)CCN(c4ccncc4)CC3)cc2C1 [JTV-803]	able to modulate PCA	
CC(=N)N1CCC(c2ccc(NC(=O)CN(Cc3cccc(OCC(=O)O)c3)c3cccc(C(=N)N)c3)cc2)CC1 [KFA-144]	able to modulate PCA	
CN1CCC(N2CCN(C(=O)[C@H](NC(=O)c3ccc4cc[nH]c4c3)c3ccccc3)CC2)CC1 [LY517717]	able to modulate PCA	
COc1ccccc1N1CCN(C(=O)CNC(=O)C(Nc2cccc(C(=N)N)c2)c2ccccc2O[C@@H]2O[C@H](CO)[C@@H](O)[C@H](O)[C@H]2O)CC1 (stereo partly shown) [MCM-09]	able to modulate PCA	
O=C1CN(S(=O)(=O)/C=C/c2ccc(Cl)s2)CCN1Cc1cc2cnccc2[nH]1 [RPR-209685]	able to modulate PCA	
CC(=N)N1CCC(Oc2ccc(N(Cc3ccc4ccc(C(=N)N)cc4c3)S(=O)(=O)CC(=O)O)cc2)CC1 [YM-60828]	able to modulate PCA	
COc1ccc(-n2nc(C(N)=O)c3c2C(=O)N(c2ccc(N4CCCCC4=O)cc2)CC3)cc1 [apixaban, 1-(4-methoxyphenyl)-7-oxo-6-[4-(2-oxopiperidin-1-yl)phenyl]-4,5-dihydropyrazolo[5,4-c]pyridine-3-carboxamide]	able to modulate PCA	
COc1ccc(NC(=O)c2ccc(C(=N)N(C)C)cc2)c(C(=O)Nc2ccc(Cl)cn2)c1 [betrixaban, N-(5-chloropyridin-2-yl)-2-([4-(N,N-dimethylcarbamimidoyl)benzoyl]amino)-5-methoxybenzamide]	able to modulate PCA	
COc1ccc(C(=O)Nc2cccc(O)c2NC(=O)c2ccc(N3CCCN(C)CC3)cc2)cc1 [darexaban]	able to modulate PCA	
CO[C@H]1C[C@@H](C(=O)Nc2ccc(-n3ccccc3=O)cc2F)N(C(=O)Nc2ccc(Cl)cc2)C1 [eribaxaban]	able to modulate PCA	
CO[C@H]1O[C@H](COS(=O)(=O)O)[C@@H](O[C@@H]2O[C@@H](C(=O)O)[C@@H](O[C@H]3O[C@H](COS(=O)(=O)O)[C@@H](O[C@@H]4O[C@H](C(=O)O)[C@@H](O[C@H]5O[C@H](COS(=O)(=O)O)[C@@H](O)[C@H](O)[C@H]5NS(=O)(=O)O)[C@H](O)[C@H]4O)[C@H](OS(=O)(=O)O)[C@H]3NS(=O)(=O)O)[C@H](O)[C@H]2OS(=O)(=O)O)[C@H](O)[C@H]1NS(=O)(=O)O [fondaparinux, 2-deoxy-6-O-sulfo-2-(sulfoamino)-α-D-glucopyranosyl-(1→4)-O-β-D-glucopyranuronosyl-(1→4)-O-2-deoxy-3,6-di-O-sulfo-2-(sulfoamino)-α-D-glucopyranosyl-(1→4)-O-2-O-sulfo-α-L-idopyranouronosyl-(1→4)-O-methyl-2-deoxy-6-O-sulfo-2-(sulfoamino)-α-D-glucopyranoside, decasodium salt]		Clotting time (CT) of whole blood with hALPCs in presence of anticoagulant drug ([2]; bivalirudin 10.7 μg/ml): 209.7 ± 149.7 s
O=C([C@H](O)CS(=O)(=O)c1ccc2cc(Cl)ccc2c1)N1CCC(N2CCCNC2=O)CC1 [letaxaban]	able to modulate PCA	
CN(C)Cc1nccn1-c1ccc(NC(=O)c2cc(C(F)(F)F)nn2-c2ccc3onc(N)c3c2)c(F)c1 [razaxaban]	able to modulate PCA	
O=C(NC[C@H]1CN(c2ccc(N3CCOCC3=O)cc2)C(=O)O1)c1ccc(Cl)s1 [rivaroxaban, (S)-5-chloro-N-{[2-oxo-3-[4-(3-oxomorpholin-4-yl)phenyl]oxazolidin-5-yl]methyl}thiophene-2-carboxamide]		Modulation of hALPCs PCA (in words) ([2]; ROTEM whole blood, rivaroxaban 1 μg/ml, bivalirudin 10.7 μg/ml, heparin 10 U/mL): ineffective
antistasin	able to modulate PCA	
bivalirudin		Control of hALPCs PCA by thrombin inhibitor, increased dose (2× or 5×) ([2]; ROTEM whole blood): only a partial control; Clotting time (CT) of whole blood with hALPCs in presence of anticoagulant drug ([2]; bivalirudin 10.7 μg/ml): 380.8 ± 114.7 s; Control of hepatocytes PCA (in words) ([3]; ROTEM whole blood, FIG. 6D): controlled; CT of control blood (in absence of cells) ([4]; bivalirudin 10.7 μg/ml, unit not printed at the place (other CT in sec)): 1075.0±107.2
hirudin		Control of hALPCs PCA by thrombin inhibitor, increased dose (2× or 5×) ([2]; ROTEM whole blood): only a partial control; Clotting time (CT) of whole blood with hALPCs in presence of anticoagulant drug ([2]; bivalirudin 10.7 μg/ml): 256.3 ± 11.8 s; Control of hepatocytes PCA (in words) [3]: controlled; Coagulation of blood in absence of cells (in words) ([4]; thromboelastometry stopped after 1800 sec): no measurable coagulation was observed
